Results published in PubChem BioAssay (NCI).
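Protocol summary: plate cells (96-well), add compound at 5 concentrations, incubate 48 h, interpolate endpoints linearly. At the GI50, growth is halved. At the TGI there is no net growth.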

Experiments:
Assay in all cases: DTP human tumour cell line panel, 48 h
MDA-MB-231 breast = system: MDA-MB-231 breast
A549 NSCLC = system: A549 NSCLC
HCC-2998 colon = system: HCC-2998 colon
BT-549 breast = system: BT-549 breast
NCI/ADR-RES ovarian = system: NCI/ADR-RES ovarian
UO-31 renal = system: UO-31 renal
KM12 colon = system: KM12 colon
CCRF-CEM leukemia = system: CCRF-CEM leukemia
CAKI-1 renal = system: CAKI-1 renal
MCF7 breast = system: MCF7 breast

Structure (SMILES) | GI50 (MDA-MB-231 breast) | TGI (MDA-MB-231 breast) | GI50 (A549 NSCLC) | TGI (A549 NSCLC) | GI50 (HCC-2998 colon) | TGI (HCC-2998 colon) | GI50 (BT-549 breast) | TGI (BT-549 breast) | GI50 (NCI/ADR-RES ovarian) | TGI (NCI/ADR-RES ovarian) | GI50 (UO-31 renal) | TGI (UO-31 renal) | GI50 (KM12 colon) | TGI (KM12 colon) | GI50 (CCRF-CEM leukemia) | TGI (CCRF-CEM leukemia) | GI50 (CAKI-1 renal) | TGI (CAKI-1 renal) | TGI (MCF7 breast) | GI50 (MCF7 breast)
Cn1cc(-c2cnc3ccc(NC(=O)Nc4ccc(F)c(Br)c4)cc3n2)cn1 | 1.78 µM | 4.14 µM | 1.77 µM | 4.85 µM | 1.79 µM | 3.5 µM | 1.51 µM | 3.24 µM | 2.21 µM | 5.41 µM | 1.42 µM | 3.07 µM | 1.71 µM | 3.65 µM | 2.06 µM | 6.21 µM | 2.05 µM | 5.57 µM |  | 
Cc1nc2cccc([N+](=O)[O-])c2c(NCCCN(C)C)c1C |  |  |  | > 100 µM |  | > 54.3 µM |  |  |  | > 100 µM |  | > 100 µM |  | > 62.4 µM |  | > 75.2 µM |  | > 100 µM | 60.6 µM | 
O=C1NNC=Nc2ccc(cc2)S(=O)(=O)c2ccc(cc2)N=CNNC1=O |  | > 100 µM |  | > 100 µM |  | > 100 µM |  | > 100 µM |  | > 100 µM |  | > 100 µM |  | > 100 µM |  |  |  | > 100 µM | > 100 µM | 
CN(C(=O)C12C3C4C1C1C2C3C41C(=O)C(C)(C)C)C(C)(C)C (centres undefined) |  |  |  | > 100 µM |  | > 100 µM |  |  |  |  |  | > 100 µM |  | > 100 µM |  | > 100 µM |  | > 100 µM |  | 
N#CC(C(=N/O)/C(=N/O)C(C#N)c1ccc(Cl)cc1)c1ccc(Cl)cc1 (centres undefined) |  |  |  | > 100 µM |  | > 100 µM |  |  |  |  |  | > 100 µM |  | > 100 µM |  |  |  | > 100 µM |  | 
CCCCNC1=C(C(=O)OCC)C(=O)CO1 |  |  |  | > 100 µM |  | > 100 µM |  |  |  |  |  | > 100 µM |  | > 100 µM |  | > 100 µM |  | > 100 µM |  | 
CN(C)CCC(=O)N1C/C(=C/c2ccccc2)C(=O)/C(=C\c2ccccc2)C1 |  | 2.6 µM |  | 13.5 µM |  | 2.45 µM |  | 2.81 µM |  |  |  | 5.21 µM |  | 1.73 µM |  | 0.874 µM |  | 7.02 µM | 2.19 µM | 
CC1(Cl)C(=O)NC(=O)N(C2CC(N=[N+]=[N-])C(CO)O2)C1N=[N+]=[N-] (centres undefined) |  |  |  | > 100 µM |  | > 100 µM |  |  |  |  |  | > 100 µM |  | > 100 µM |  | > 100 µM |  | > 100 µM |  | 
COC(=O)C1=C(C(=O)OC)C2C=CC1C1C(Cl)=C(Cl)C21 (centres undefined) |  |  |  | > 100 µM |  | > 100 µM |  |  |  |  |  | > 100 µM |  | > 100 µM |  | > 100 µM |  | > 100 µM |  | 
COc1ccc2[nH]c3c(C)c4c(c(C)c3c2c1)CN(C)CC4 |  |  |  | 33.9 µM |  | 31.4 µM |  |  |  |  |  | 30 µM |  | 27.1 µM |  | > 100 µM |  | 34.1 µM |  | 
COC(=O)CC(=O)C[P+](c1ccccc1)(c1ccccc1)c1ccccc1 |  |  |  | > 218 µM |  | > 218 µM |  |  |  |  |  |  |  | > 218 µM |  | > 218 µM |  | > 218 µM |  | 
CCCCCCCCCC[C@@H](O)[C@@H]1CC[C@H]([C@H]2CC[C@@H]([C@@H](O)CCCCCCCCCC[C@H]3CC(CC(C)=O)C(=O)O3)O2)O1 (some centres undefined) |  |  |  | 30.6 µM |  | 47 µM |  |  |  |  |  | 16.5 µM |  |  |  | 33.4 µM |  | 75.8 µM |  | 
CC12CC[C@@H](C(C)(C)O)C1[C@@H](O)CC1(C)C2CCC2[C@@]3(C)CC[C@H](O)C(C)(C)C3C(O)C[C@]21C (some centres undefined) |  |  |  | 29.7 µM |  | 36.2 µM |  |  |  |  |  | 40 µM |  | 38.1 µM |  | 27.3 µM |  |  |  | 
O=[N+]([O-])/C=C\c1ccc(Cl)c(Cl)c1 | 5.73 µM | 23.2 µM | 2.37 µM | 5.43 µM |  |  | 4.15 µM | 14.9 µM | 2.18 µM | 4.78 µM | 1.08 µM | 2.33 µM | 2.08 µM | 4.56 µM |  | 4.75 µM | 1.32 µM | 2.88 µM |  | 
CCOc1ccc2c(c1)[n+]([O-])c(S(=O)(=O)c1ccc(C)cc1)c(N)[n+]2[O-] |  |  |  | > 100 µM |  | > 100 µM |  |  |  |  |  | > 100 µM |  | > 100 µM |  | > 100 µM |  | > 100 µM |  | 
COc1cc2c3c(n(C)c(=O)c2cc1OC)-c1cc2c(cc1/C3=C\CCCN1C(=O)c3ccccc3C1=O)OCO2 |  |  | 22 µM | > 40 µM |  |  | 8.26 µM | > 40 µM | > 40 µM | > 40 µM |  |  | 5.1 µM | > 40 µM |  |  | 5.44 µM | > 40 µM | > 40 µM | 6.94 µM
Cc1ccc(C)c(NC(=O)CC/C(=N\NC(=O)C(=O)NN)C(C)C(=O)c2ccc(O)cc2)c1 (centres undefined) |  |  |  | > 100 µM |  | > 100 µM |  |  |  |  |  | > 100 µM |  | > 100 µM |  | > 100 µM |  | > 100 µM |  | 
COC(=O)CC(C(C(=O)OC)C(=O)OC)N1C(=O)OCC1c1ccccc1 (centres undefined) |  |  |  | > 100 µM |  | > 100 µM |  |  |  |  |  | > 100 µM |  | > 100 µM |  | > 100 µM |  | > 100 µM |  | 
CC1=C(C(=O)Nc2ccc([N+](=O)[O-])cc2)C(c2ccc(N(C)C)cc2)C(C(=O)Nc2ccc([N+](=O)[O-])cc2)=C(C)N1 |  |  |  | > 100 µM |  | 25.8 µM |  |  |  |  |  | > 100 µM |  | 37 µM |  | 60.7 µM |  | 89.5 µM |  | 
CC(=O)Nc1ccccc1Sc1ccccc1 |  |  |  | > 100 µM |  | > 100 µM |  |  |  |  |  | > 100 µM |  | > 100 µM |  | > 100 µM |  | > 100 µM |  | 
N#C/C(=C/c1ccsc1)C(=O)c1ccccc1 |  |  |  | > 100 µM |  | > 100 µM |  |  |  |  |  | > 100 µM |  | > 100 µM |  | > 100 µM |  | > 100 µM |  | 
Cc1ccc(-c2c3c([nH]c(=O)c2C#N)-c2cc(F)ccc2OC3)cc1 | 34.8 µM | > 100 µM | 55 µM | > 100 µM |  |  |  |  | > 100 µM | > 100 µM | 41.3 µM | > 100 µM | 36.1 µM | > 100 µM | 1.19 µM | 7.25 µM | 82.1 µM | > 100 µM | > 100 µM | 52.7 µM
COc1ccccc1C1C(C(=O)Nc2ccccc2)=C(C)NC(C)=C1C(=O)Nc1ccccc1 |  |  |  |  |  | > 100 µM |  |  |  |  |  | > 100 µM |  | > 100 µM |  |  |  | > 100 µM |  | 
OCCC1(O)CCC(O)CC1 (centres undefined) |  |  |  | > 100 µM |  | > 100 µM |  |  |  |  |  | > 100 µM |  | > 100 µM |  | > 100 µM |  |  |  | 
Cc1ccc(S(=O)(=O)C(CC(=O)N2CCCC2)C(=O)c2ccccc2)cc1 (centres undefined) |  |  |  | > 100 µM |  | > 100 µM |  |  |  |  |  | > 100 µM |  | > 100 µM |  | 62.5 µM |  | > 100 µM |  | 
O=c1[nH]n2c(=O)cc[nH]c2c1-c1nnns1 |  |  |  | > 100 µM |  | > 100 µM |  |  |  |  |  | > 100 µM |  | > 100 µM |  | > 100 µM |  | > 100 µM |  | 
